Results on 10 molecules are retold here after the Kinase Knowledgebase extract (Sharma et al. 2016).

SMILES strings stand for the structures.

The target of assay [1] is CDK2 (Human) (UniProt P24941). Description: Enzyme Assay.
Assay [2] deals with EGFR (human) (UniProt P00533).

One may read the IC50 as the point on the concentration scale where inhibition reaches its midpoint.

Chain of EGFR (human) (P00533 whole entry, looked up): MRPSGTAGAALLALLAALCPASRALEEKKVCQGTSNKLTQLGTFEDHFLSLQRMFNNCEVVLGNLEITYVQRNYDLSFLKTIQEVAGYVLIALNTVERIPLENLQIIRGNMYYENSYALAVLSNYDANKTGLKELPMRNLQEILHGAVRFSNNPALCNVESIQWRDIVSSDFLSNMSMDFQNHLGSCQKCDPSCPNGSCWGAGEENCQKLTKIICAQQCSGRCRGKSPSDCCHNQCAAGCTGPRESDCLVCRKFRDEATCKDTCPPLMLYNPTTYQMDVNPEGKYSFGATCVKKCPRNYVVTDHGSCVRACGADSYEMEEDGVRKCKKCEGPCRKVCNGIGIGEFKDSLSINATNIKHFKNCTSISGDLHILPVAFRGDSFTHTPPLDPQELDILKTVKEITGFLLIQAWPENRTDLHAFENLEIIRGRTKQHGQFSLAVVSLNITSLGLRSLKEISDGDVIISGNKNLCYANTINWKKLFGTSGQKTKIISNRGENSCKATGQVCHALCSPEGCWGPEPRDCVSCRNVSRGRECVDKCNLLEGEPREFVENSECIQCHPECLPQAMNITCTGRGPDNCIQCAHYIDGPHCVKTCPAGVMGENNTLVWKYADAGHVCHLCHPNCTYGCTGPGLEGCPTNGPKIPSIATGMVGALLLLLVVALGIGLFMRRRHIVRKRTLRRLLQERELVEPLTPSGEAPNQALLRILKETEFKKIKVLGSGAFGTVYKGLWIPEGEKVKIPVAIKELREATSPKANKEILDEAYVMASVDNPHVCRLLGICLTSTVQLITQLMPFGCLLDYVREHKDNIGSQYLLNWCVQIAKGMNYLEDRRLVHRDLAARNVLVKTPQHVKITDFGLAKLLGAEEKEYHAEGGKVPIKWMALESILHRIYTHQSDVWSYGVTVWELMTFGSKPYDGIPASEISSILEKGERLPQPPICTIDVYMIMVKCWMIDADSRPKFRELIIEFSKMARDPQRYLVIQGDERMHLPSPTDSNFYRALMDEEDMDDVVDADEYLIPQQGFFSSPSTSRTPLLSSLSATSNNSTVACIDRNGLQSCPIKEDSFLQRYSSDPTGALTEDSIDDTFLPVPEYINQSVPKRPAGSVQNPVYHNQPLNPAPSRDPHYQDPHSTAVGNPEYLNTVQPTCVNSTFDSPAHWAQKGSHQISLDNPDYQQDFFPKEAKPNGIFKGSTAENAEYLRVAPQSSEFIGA

`Cc1[nH]nc2c1N=C(c1ccccc1Cl)c1cc(NS(=O)(=O)N(C)C)ccc1N2` registered an IC50 in assay [1] of 46 nM.

Regarding `Cc1[nH]nc2c1N=C(c1ccccc1F)c1cc(Cl)ccc1N2`, the IC50 in assay [1] turned out to be 190 nM.

Regarding `Cc1[nH]nc2c1N=C(c1ccccc1F)c1cc(C(N)=O)ccc1N2`, in assay [1], the 50% inhibitory concentration (IC50) was found to be 17 nM.

Regarding `Cc1[nH]nc2c1N=C(c1ccccc1F)c1cc(C#N)ccc1N2`, the IC50 was 16 nM in assay [1] and 10900 nM in assay [2].

As for `Cc1[nH]nc2c1N=C(c1ccccc1Cl)c1cc(N)ccc1N2`, the IC50 in assay [1] amounted to 88 nM; in assay [2], 989 nM.

For the molecule `Cc1[nH]nc2c1N=C(c1ccccc1Cl)c1cc(NS(C)(=O)=O)ccc1N2`, the IC50 in assay [1] amounted to 24 nM.

In assay [1], `Cc1[nH]nc2c1N=C(c1ccccc1Cl)c1cc(Cl)ccc1N2` showed an IC50 of 440 nM.

In turn, `Cc1[nH]nc2c1N=C(c1ccccc1)c1cc(Cl)ccc1N2` showed an IC50 in assay [1] of 490 nM.

In the case of `COc1ccc2c(c1)C(c1ccccc1Cl)=Nc1c(n[nH]c1C)N2`, the IC50 in assay [1] turned out to be 320 nM.

For `CC(=O)Nc1ccc2c(c1)C(c1ccccc1Cl)=Nc1c(n[nH]c1C)N2`, the values for the IC50 in assay [1] and in assay [2] were 38 nM and 726 nM, respectively.
